Test results taken from US5346897A, “Agents for potentiating the effects of antitumor agents and combating multiple drug resistance” (Burroughs Wellcome Co., priority 1992, dated 1994).
Like-named read-outs stand apart in the source and are kept apart here. *1 amine or outer side, *2 acyl side, *3 side chain or, on linkers, in order; H or OH if unused. Where a SMILES comes first, the peptide text is derived from it. Bridges are numbered along the chain shown (N, C = ends). Roman numbers before positions name the chains, in order. [ ]: non-standard residue; d: D form. Actinocin(9to1) = Cc1c2oc3c(C)ccc(C(=O)[*:1])c3nc-2c(C(=O)[*:2])c(N)c1=O; NMeV = CN[C@H](C(=O)O)C(C)C; Sar = CNCC(=O)O

Tests used:
[1] = test system: resistant sublines of murine leukemia cells; details: Tsuruo et al., Cancer Res.; cited from earlier work
[2] = test system: Chinese hamster ovary (CHO) tissue culture cells (AuxB1 and C5S32); experiment: Cytotoxicity of Actinomycin D alone in Chinese hamster ovary cells (AuxB1 and C5S32); assay type: cell-based
[3] = In vitro cytotoxicity of potentiating agents in human KB epidermoid carcinoma cells, drug resistant KB V-1, MTT; details: human, kb v-1 cells
Method: (§1) The procedure for assaying the cytotoxicity of potentiating agents with human KB epidermoid carcinoma cells is essentially the same as the assay procedure described above for use with Chinese hamster ovary cells. […] After 48 hours of incubation at 37° C., the media is changed and cells are treated with actinomycin D at 0.1 nM (3-1) or 20 nM (V-i). The test potentiating agent is introduced to one-half the untreated cultures and onehalf the Act D treated cultures at 1 and 10 μM. After 96 hours of additional incubation at 37° C, 0.5 mg/ml MTT dye is added, the cells are incubated for three hours, after which the cells are dissolved in DMSO, and the absorbance is then read at 570 nm.

[4] = test system: KB V-1 human epidermoid carcinoma cells (drug resistant); experiment: as above; details: KB V-1 drug resistant, 96 h, Act D alone = 1.00
Method: as §1

[5] = In vitro cytotoxicity of potentiating agents in Chinese hamster ovary cells, multidrug resistant C5S32 line, MTT; assay type: cell-based; details: hamster, c5s32 cho cells, C5S32 drug resistant, no Act D, untreated = 1.00, read-out: Normalized absorbance (cell survival), potentiating agent alone, fraction of untreated culture
[6] = test system: C5S32 Chinese hamster ovary cells (drug resistant); experiment: as above; assay type: cell-based; details: 96 h, Act D alone = 1.00
[7] = in vitro; details: human, kb 3-1 cells
Method: as §1

[8] = test system: KB 3-1 human epidermoid carcinoma cells (wildtype); details: kb 3-1 cells, 96 h
Method: as §1

[9] = in vitro; assay type: cell-based, Chinese hamster; details: hamster, auxb1 cho cells
[10] = test system: AuxB1 Chinese hamster ovary cells (wildtype); experiment: in vitro; assay type: cell-based; details: auxb1 cho cells, 96 h

SMILES: CN(C)CCCN1c2ccccc2CCc2ccc(Cl)cc21 [clomipramine]
- enhancement of the activity of antitumor agents against resistant sublines of murine leukemia cells [1]: enhance the activity of antitumor agents

SMILES: CCN(CC)CCn1c(=O)c(Cc2ccc(OC)cc2)nc2ccccc21 [caroverine]
- enhancement of the activity of antitumor agents against resistant sublines of murine leukemia cells [1]: enhance the activity of antitumor agents

SMILES: C=C[C@H]1C[N@@]2CC[C@H]1C[C@@H]2[C@@H](O)c1ccnc2ccc(OC)cc12 [quinidine]
- enhancement of the activity of antitumor agents against resistant sublines of murine leukemia cells [1]: enhance the activity of antitumor agents

SMILES: Cc1c2oc3c(C)ccc(C(=O)N[C@@H]4C(=O)N[C@H](C(C)C)C(=O)N5CCC[C@H]5C(=O)N(C)CC(=O)N(C)[C@@H](C(C)C)C(=O)O[C@@H]4C)c3nc-2c(C(=O)N[C@@H]2C(=O)N[C@H](C(C)C)C(=O)N3CCC[C@H]3C(=O)N(C)CC(=O)N(C)[C@@H](C(C)C)C(=O)O[C@@H]2C)c(N)c1=O [Actinomycin D] (I: T[dV]P[Sar][NMeV] / II: T[dV]P[Sar][NMeV]; ester I:1-I:C, II:1-II:C; linker I:N-II:N via Actinocin(9to1))
- reduction in cell number below the value of completely untreated cultures ([2]; Act D alone (0.01 μM AuxB1, 0.5 μM C5S32), in most experiments): 10-20%
- resistance of C5S32 cells to Actinomycin D compared to the parental AuxB1 cell line ([2]; C5S32 vs AuxB1): about 200 fold

SMILES: COc1ccc([C@@H]2Sc3ccccc3N(CCN(C)C)C(=O)[C@@H]2OC(C)=O)cc1 [diltiazem]
- enhancement of the activity of antitumor agents against resistant sublines of murine leukemia cells [1]: enhance the activity of antitumor agents

SMILES: CN1CCN(CCCN2c3ccccc3Sc3ccc(C(F)(F)F)cc32)CC1 [trifluoperazine]
- enhancement of the activity of antitumor agents against resistant sublines of murine leukemia cells [1]: enhance the activity of antitumor agents

SMILES: CCOC(=O)/C=C/c1cccc(/C(=C/CN2CCCC2)c2ccc(C)cc2)n1 [Compound (B), Ethyl (E)-3-{6-[3-pyrrolidino-l-(4-tolyl)prop-lE-enyl]-2-pyridyl}acrylate]
- viability at 96 h, 1 µM [3]: 36%
- viability at 96 h, 10 µM [3]: 14%
- Normalized absorbance (cell survival), potentiating agent + Act D, fraction of Act D alone ([4]; potentiating agent 1 μM + actinomycin D 20 nM): 0.48
- Normalized absorbance (cell survival), potentiating agent + Act D, fraction of Act D alone ([4]; potentiating agent 10 μM + actinomycin D 20 nM): 0.04
- viability at 96 h, 1 µM ([5]; potentiating agent 1 μM): 77%
- viability at 96 h, 10 µM ([5]; potentiating agent 10 μM): 52%
- Normalized absorbance (cell survival), potentiating agent + Act D, fraction of Act D alone ([6]; potentiating agent 1 μM + Act D 0.5 μM): 0.63
- Normalized absorbance (cell survival), potentiating agent + Act D, fraction of Act D alone ([6]; potentiating agent 10 μM + Act D 0.5 μM): 0.14
- viability at 96 h, 1 µM [7]: 58%
- viability at 96 h, 10 µM [7]: 37%
- Normalized absorbance (cell survival), potentiating agent + Act D, fraction of Act D alone ([8]; 1 µM): 0.55
- Normalized absorbance (cell survival), potentiating agent + Act D, fraction of Act D alone ([8]; 10 µM): 0.45
- viability at 96 h, 1 µM [9]: 92%
- viability at 96 h, 10 µM [9]: 93%
- Normalized absorbance (cell survival), potentiating agent + Act D, fraction of Act D alone ([10]; 1 µM): 0.63
- Normalized absorbance (cell survival), potentiating agent + Act D, fraction of Act D alone ([10]; 10 µM): 0.29

SMILES: COC(=O)C1=C(C)NC(C)=C(C(=O)OCCN(C)Cc2ccccc2)C1c1cccc([N+](=O)[O-])c1 (stereo not shown) [nicardipine]
- enhancement of the activity of antitumor agents against resistant sublines of murine leukemia cells [1]: enhance the activity of antitumor agents

SMILES: COc1ccc(CCN(C)CCCC(C#N)(c2ccc(OC)c(OC)c2)C(C)C)cc1OC (stereo not shown) [Verapamil]
- enhancement of the activity of antitumor agents against resistant sublines of murine leukemia cells [1]: enhance the activity of antitumor agents
